From PubChem BioAssay AID2060603 (Molecular Pharmacology Branch, DTP, NCI, 2025)
pIC50: −log10 of the molar value.

System: 422866-222-R5-J1-PDC spheroid viability
Test: Anticancer human tumor 422866-222-R5-J1-PDC patient-derived pancreatic adenocarcinoma cell line growth inhibition [CLK]
Conditions: spheroids with HUVEC and MSC; for pIC50: curve of first compound; for viability, T/C: stronger effect = lower value
Method in brief: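 Patient-derived tumor cells grown as complex spheroids with HUVEC endothelial cells and mesenchymal stem cells, treated with drug combinations. Concentrations descend in half-log steps from near clinical Cmax, or from 10 microM if Cmax unknown.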
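Further: spheroids exposed to agents for seven days before readout.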

Structure (SMILES): C=CC(=O)Nc1cc(Nc2nccc(-c3cn(C)c4ccccc34)n2)c(OC)cc1N(C)CCN(C)C + CN1CCN(c2cc(C(=O)Nc3cc4cc(-c5cnn(C)c5)ccc4cn3)ccn2)CC1
- pIC50 (second compound 0.0316 µM): < 6.52
- pIC50 (second compound 0.1 µM): < 6.52
- pIC50 (second compound 0.316 µM): < 6.52
- pIC50 (second compound 1 µM): > 9.02
- pIC50 (second compound 3.16 µM): > 9.02
- pIC50 (second compound 10 µM): > 9.02
- viability, T/C (second compound 0.0316 µM, first compound 0.000949 µM): 122%
- viability, T/C (second compound 0.0316 µM, first compound 0.003 µM): 103%
- viability, T/C (second compound 0.0316 µM, first compound 0.00949 µM): 114%
- viability, T/C (second compound 0.0316 µM, first compound 0.03 µM): 96%
- viability, T/C (second compound 0.0316 µM, first compound 0.0949 µM): 93.9%
- viability, T/C (second compound 0.0316 µM, first compound 0.3 µM): 77.8%
- viability, T/C (second compound 0.1 µM, first compound 0.000949 µM): 133%
- viability, T/C (second compound 0.1 µM, first compound 0.003 µM): 129%
- viability, T/C (second compound 0.1 µM, first compound 0.00949 µM): 107%
- viability, T/C (second compound 0.1 µM, first compound 0.03 µM): 105%
- viability, T/C (second compound 0.1 µM, first compound 0.0949 µM): 94.2%
- viability, T/C (second compound 0.1 µM, first compound 0.3 µM): 93.2%
- viability, T/C (second compound 0.316 µM, first compound 0.000949 µM): 94%
- viability, T/C (second compound 0.316 µM, first compound 0.003 µM): 87.2%
- viability, T/C (second compound 0.316 µM, first compound 0.00949 µM): 93.7%
- viability, T/C (second compound 0.316 µM, first compound 0.03 µM): 83.9%
- viability, T/C (second compound 0.316 µM, first compound 0.0949 µM): 87.6%
- viability, T/C (second compound 0.316 µM, first compound 0.3 µM): 79%
- viability, T/C (second compound 1 µM, first compound 0.000949 µM): 29.3%
- viability, T/C (second compound 1 µM, first compound 0.003 µM): 36.8%
- viability, T/C (second compound 1 µM, first compound 0.00949 µM): 35.3%
- viability, T/C (second compound 1 µM, first compound 0.03 µM): 29.3%
- viability, T/C (second compound 1 µM, first compound 0.0949 µM): 30.8%
- viability, T/C (second compound 1 µM, first compound 0.3 µM): 23.7%
- viability, T/C (second compound 3.16 µM, first compound 0.000949 µM): 9.51%
- viability, T/C (second compound 3.16 µM, first compound 0.003 µM): 9.88%
- viability, T/C (second compound 3.16 µM, first compound 0.00949 µM): 10.5%
- viability, T/C (second compound 3.16 µM, first compound 0.03 µM): 10.5%
- viability, T/C (second compound 3.16 µM, first compound 0.0949 µM): 9.87%
- viability, T/C (second compound 3.16 µM, first compound 0.3 µM): 9.45%
- viability, T/C (second compound 10 µM, first compound 0.000949 µM): 2.62%
- viability, T/C (second compound 10 µM, first compound 0.003 µM): 2.53%
- viability, T/C (second compound 10 µM, first compound 0.00949 µM): 2.32%
- viability, T/C (second compound 10 µM, first compound 0.03 µM): 1.8%
- viability, T/C (second compound 10 µM, first compound 0.0949 µM): 1.99%
- viability, T/C (second compound 10 µM, first compound 0.3 µM): 1.66%

Structure (SMILES): Nc1ccccc1NC(=O)c1ccc(CNC(=O)OCc2cccnc2)cc1 + CN1CCN(c2cc(C(=O)Nc3cc4cc(-c5cnn(C)c5)ccc4cn3)ccn2)CC1
- pIC50 (second compound 0.0316 µM): < 5.00
- pIC50 (second compound 0.1 µM): < 5.00
- pIC50 (second compound 0.316 µM): 5.62
- pIC50 (second compound 1 µM): > 7.50
- pIC50 (second compound 3.16 µM): > 7.50
- pIC50 (second compound 10 µM): > 7.50
- viability, T/C (second compound 0.0316 µM, first compound 0.0316 µM): 121%
- viability, T/C (second compound 0.0316 µM, first compound 0.1 µM): 137%
- viability, T/C (second compound 0.0316 µM, first compound 0.316 µM): 121%
- viability, T/C (second compound 0.0316 µM, first compound 1 µM): 114%
- viability, T/C (second compound 0.0316 µM, first compound 3.16 µM): 75.8%
- viability, T/C (second compound 0.0316 µM, first compound 10 µM): 60.4%
- viability, T/C (second compound 0.1 µM, first compound 0.0316 µM): 135%
- viability, T/C (second compound 0.1 µM, first compound 0.1 µM): 118%
- viability, T/C (second compound 0.1 µM, first compound 0.316 µM): 121%
- viability, T/C (second compound 0.1 µM, first compound 1 µM): 96.6%
- viability, T/C (second compound 0.1 µM, first compound 3.16 µM): 74.5%
- viability, T/C (second compound 0.1 µM, first compound 10 µM): 62.6%
- viability, T/C (second compound 0.316 µM, first compound 0.0316 µM): 106%
- viability, T/C (second compound 0.316 µM, first compound 0.1 µM): 95.5%
- viability, T/C (second compound 0.316 µM, first compound 0.316 µM): 91.1%
- viability, T/C (second compound 0.316 µM, first compound 1 µM): 62.5%
- viability, T/C (second compound 0.316 µM, first compound 3.16 µM): 46.9%
- viability, T/C (second compound 0.316 µM, first compound 10 µM): 19.5%
- viability, T/C (second compound 1 µM, first compound 0.0316 µM): 28.4%
- viability, T/C (second compound 1 µM, first compound 0.1 µM): 28.6%
- viability, T/C (second compound 1 µM, first compound 0.316 µM): 25.6%
- viability, T/C (second compound 1 µM, first compound 1 µM): 16.1%
- viability, T/C (second compound 1 µM, first compound 3.16 µM): 4.32%
- viability, T/C (second compound 1 µM, first compound 10 µM): 5.2%
- viability, T/C (second compound 3.16 µM, first compound 0.0316 µM): 8.75%
- viability, T/C (second compound 3.16 µM, first compound 0.1 µM): 8.34%
- viability, T/C (second compound 3.16 µM, first compound 0.316 µM): 4.74%
- viability, T/C (second compound 3.16 µM, first compound 1 µM): 4.04%
- viability, T/C (second compound 3.16 µM, first compound 3.16 µM): 3.26%
- viability, T/C (second compound 3.16 µM, first compound 10 µM): 8.29%
- viability, T/C (second compound 10 µM, first compound 0.0316 µM): 2.62%
- viability, T/C (second compound 10 µM, first compound 0.1 µM): 1.81%
- viability, T/C (second compound 10 µM, first compound 0.316 µM): 1.37%
- viability, T/C (second compound 10 µM, first compound 1 µM): 1.01%
- viability, T/C (second compound 10 µM, first compound 3.16 µM): 2.34%
- viability, T/C (second compound 10 µM, first compound 10 µM): 4.45%
